# Measurements published in US20190124918A1, “BIOFILM FORMATION INHIBITOR AND BIOFILM FORMATION INHIBITING COMPOSITION” (KAO CORPORATION, priority 2016, published 2019).
# Tests used:
# [1] = tested on: Pseudomonas PAO1 strain (ATCC 15692); assay: Amount of biofilm formed (crystal violet, OD570), 96-well microplate culture; format: cell-based; settings: for inhibition at 18 ppm: final concentration 18 ppm
# Experimental: Pseudomonas PAO1 strain (ATCC 15692) was subjected to stationary culture performed in LB culture medium (Lysogeny Broth; manufactured by Becton Dickinson) at 37° C. for 24 hours. The turbidity (OD600) of the culture solution was measured. The culture solution was diluted with Mueller Hinton Broth (BBL made) to prepare a suspension (15 mL) having a turbidity (OD600) of 1/10^6. […]
# (§1) Growth inhibition rates relative to the control (ethanol alone) were calculated based on OD600 values measured and in accordance with the following expression. In addition, biofilm (BF) formation inhibition rates relative to the control (ethanol alone) were calculated based on OD570 values and in accordance with the following expression:
# BF inhibition (%)={1−(compound addition group OD570/control group OD570)}×100
# (§2) As a control, an ethanol solvent alone was used (EtOH control). The concentrations of test compounds in the ethanol solution were as follows: test compound 1: 20 mM, test compounds 2 to 7: 100 mM. To each of the wells of a 96-well microplate (351172; manufactured by Japan Becton Dickinson), 6 μL of DMSO (Tokyo Kasei) and an ethanol solution of each test compound (1 to 8 μL) were added and then the microplates were allowed to stand still at room temperature for 5 hours to evaporate ethanol. A suspension solution of a Pseudomonas microbe prepared in the same procedure as in Test Example 1, 1) was added in an amount of 145 μL per well and culture was initiated.
# (§3) After the 96-well microplate was subjected to stationary culture at 30° C. for 24 hours, turbidity (OD600) was measured to check growth. Subsequently, individual wells were stained with 0.1% crystal violet and thoroughly washed twice with physiological saline. To each well, 200 μL of ethanol was added and the absorbance (OD570) was measured to obtain the amount of the biofilm formed. The growth inhibition rate and biofilm (BF) formation inhibition rate were calculated based on OD600 and OD570 values measured and in accordance with the expressions used in Test Example 2.
# [2] = tested on: Pseudomonas PAO1 strain (ATCC 15692); assay: Growth of test microbe (turbidity OD600), 96-well microplate culture; format: cell-based; settings: for inhibition at 18 ppm: final concentration 18 ppm
# Experimental: Pseudomonas PAO1 strain (ATCC 15692) was subjected to stationary culture performed in LB culture medium (Lysogeny Broth; manufactured by Becton Dickinson) at 37° C. for 24 hours. The turbidity (OD600) of the culture solution was measured. The culture solution was diluted with Mueller Hinton Broth (BBL made) to prepare a suspension (15 mL) having a turbidity (OD600) of 1/10^6.
# To each of the wells of a 96-well microplate (351172; manufactured by Japan Becton Dickinson), 6 μL of DMSO (Tokyo Chemical Industry Co. Ltd) and an ethanol solution (1 μL, 3 μL or 5 μL) of a test compound were added. After that, the microplate was allowed to stand still at room temperature for 5 hours to evaporate ethanol. The suspension of Pseudomonas microbe prepared in the above step 1) was added in an amount of 145 μL per well and culture was initiated. As the test compound, 2-methylhydroquinone (Sigma Aldrich) and p-toluquinone (Tokyo Kasei) were used. As a reference compound, sodium hypochlorite (manufactured by Wako Pure Chemical Industries Ltd.) was used. As a control, an ethanol solvent (EtOH control) alone was used. The concentration of the test compound in the ethanol solution is 1,000 ppm or 10,000 ppm and the final concentration of the test compound in the culture solution was about from 7 to 333 ppm.
# After the 96-well microplate was subjected to stationary culture performed at 30° C. for 24 hours, turbidity (OD600) was measured to check growth. Subsequently, individual wells were stained with 0.1% crystal violet and thoroughly washed twice with physiological saline. To each well, 200 μL of ethanol was added and the absorbance (OD570) was measured to obtain the amount of the biofilm formed.
# Compounds listed in Table 3 were each added to a test microbe and culture was conducted by the same procedure as in Test Example 1 and the amount of growth (OD600) and the amount of biofilm formed (OD570) were measured. For compounds a, b, c, f, h, i, J and k, 20 mM ethanol solutions were prepared; whereas for compounds d, e, g, 5 mM ethanol solutions were prepared. The solutions were each added to a 96-well microplate in an amount of 1 to 8 μL and evaluation was made. The final concentrations of the individual compounds are described in Table 3.
# as §1
# Growth inhibition (%)=(1−(compound addition group OD600/control group OD600))×100
# as §2, §3
# [3] = Pseudomonas, read-out: BF inhibition (%)
# [4] = Test Example 3, final concentration 83 ppm
# [5] = Test Example 3, final concentration 165 ppm
# [6] = Test Example 3, final concentration 331 ppm
# [7] = Test Example 3, final concentration 496 ppm
# [8] = Test Example 3, final concentration 579 ppm
# [9] = Test Example 3, final concentration 661 ppm
# [10] = Pseudomonas, read-out: Growth inhibition (%)
structure (smiles),measurement,setting,value
"CCCc1c(O)cccc1O [Compound 4, 2-Propylresorcinol]",inhibition at 101 ppm,"[1]; Pseudomonas, Test Example 3, final concentration 101 ppm, read-out: BF inhibition (%)",< 0%
same,inhibition at 203 ppm,"[1]; Pseudomonas, Test Example 3, final concentration 203 ppm, read-out: BF inhibition (%)",< 0%
same,inhibition at 405 ppm,"[1]; Pseudomonas, Test Example 3, final concentration 405 ppm, read-out: BF inhibition (%)",< 0%
same,inhibition at 608 ppm,"[1]; Pseudomonas, Test Example 3, final concentration 608 ppm, read-out: BF inhibition (%)",7.9%
same,inhibition at 709 ppm,"[1]; Pseudomonas, Test Example 3, final concentration 709 ppm, read-out: BF inhibition (%)",21.7%
same,inhibition at 810 ppm,"[1]; Pseudomonas, Test Example 3, final concentration 810 ppm, read-out: BF inhibition (%)",14.1%
same,inhibition at 101 ppm,"[2]; Pseudomonas, Test Example 3, final concentration 101 ppm",< 0%
same,inhibition at 203 ppm,"[2]; Pseudomonas, Test Example 3, final concentration 203 ppm",20.5%
same,inhibition at 405 ppm,"[2]; Pseudomonas, Test Example 3, final concentration 405 ppm",< 0%
same,inhibition at 608 ppm,"[2]; Pseudomonas, Test Example 3, final concentration 608 ppm",6.8%
same,inhibition at 709 ppm,"[2]; Pseudomonas, Test Example 3, final concentration 709 ppm",16.4%
same,inhibition at 810 ppm,"[2]; Pseudomonas, Test Example 3, final concentration 810 ppm",< 0%
"CCc1cc(O)ccc1O [f, Ethylquinol]",inhibition at 18 ppm,[1]; [3],18.6%
same,inhibition at 37 ppm,"[1]; Pseudomonas, final concentration 37 ppm, read-out: BF inhibition (%)",31.1%
same,inhibition at 74 ppm,"[1]; Pseudomonas, final concentration 74 ppm, read-out: BF inhibition (%)",40.6%
same,inhibition at 110 ppm,"[1]; Pseudomonas, final concentration 110 ppm, read-out: BF inhibition (%)",50.8%
same,inhibition at 129 ppm,"[1]; Pseudomonas, final concentration 129 ppm, read-out: BF inhibition (%)",75.4%
same,inhibition at 147 ppm,"[1]; Pseudomonas, final concentration 147 ppm, read-out: BF inhibition (%)",78.9%
same,inhibition at 18 ppm,[2]; Pseudomonas,2.1%
same,inhibition at 37 ppm,"[2]; Pseudomonas, final concentration 37 ppm",5.5%
same,inhibition at 74 ppm,"[2]; Pseudomonas, final concentration 74 ppm",< 0%
same,inhibition at 110 ppm,"[2]; Pseudomonas, final concentration 110 ppm",< 0%
same,inhibition at 129 ppm,"[2]; Pseudomonas, final concentration 129 ppm",< 0%
same,inhibition at 147 ppm,"[2]; Pseudomonas, final concentration 147 ppm",< 0%
"Cc1c(O)cccc1O [Compound 6, 2-Methylresorcinol]",inhibition at 83 ppm,"[1]; Pseudomonas, Test Example 3, final concentration 83 ppm, read-out: BF inhibition (%)",< 0%
same,inhibition at 165 ppm,"[1]; Pseudomonas, Test Example 3, final concentration 165 ppm, read-out: BF inhibition (%)",< 0%
same,inhibition at 331 ppm,"[1]; Pseudomonas, Test Example 3, final concentration 331 ppm, read-out: BF inhibition (%)",< 0%
same,inhibition at 496 ppm,"[1]; Pseudomonas, Test Example 3, final concentration 496 ppm, read-out: BF inhibition (%)",53%
same,inhibition at 579 ppm,"[1]; Pseudomonas, Test Example 3, final concentration 579 ppm, read-out: BF inhibition (%)",52.2%
same,inhibition at 661 ppm,"[1]; Pseudomonas, Test Example 3, final concentration 661 ppm, read-out: BF inhibition (%)",56.3%
same,inhibition at 83 ppm,"[2]; Pseudomonas, Test Example 3, final concentration 83 ppm",< 0%
same,inhibition at 165 ppm,"[2]; Pseudomonas, Test Example 3, final concentration 165 ppm",5.2%
same,inhibition at 331 ppm,"[2]; Pseudomonas, Test Example 3, final concentration 331 ppm",< 0%
same,inhibition at 496 ppm,"[2]; Pseudomonas, Test Example 3, final concentration 496 ppm",12.3%
same,inhibition at 579 ppm,"[2]; Pseudomonas, Test Example 3, final concentration 579 ppm",20%
same,inhibition at 661 ppm,"[2]; Pseudomonas, Test Example 3, final concentration 661 ppm",13.3%
"CC1=CC(=O)C=C(C)C1=O [i, 3,5-Dimethylbenzoquinone]",inhibition at 18 ppm,[1]; [3],17.2%
same,inhibition at 36 ppm,"[1]; Pseudomonas, final concentration 36 ppm, read-out: BF inhibition (%)",26.2%
same,inhibition at 72 ppm,"[1]; Pseudomonas, final concentration 72 ppm, read-out: BF inhibition (%)",29.4%
same,inhibition at 109 ppm,"[1]; Pseudomonas, final concentration 109 ppm, read-out: BF inhibition (%)",54%
same,inhibition at 127 ppm,"[1]; Pseudomonas, final concentration 127 ppm, read-out: BF inhibition (%)",60.9%
same,inhibition at 145 ppm,"[1]; Pseudomonas, final concentration 145 ppm, read-out: BF inhibition (%)",55.8%
same,inhibition at 18 ppm,[2]; Pseudomonas,5.3%
same,inhibition at 36 ppm,"[2]; Pseudomonas, final concentration 36 ppm",< 0%
same,inhibition at 72 ppm,"[2]; Pseudomonas, final concentration 72 ppm",29.7%
same,inhibition at 109 ppm,"[2]; Pseudomonas, final concentration 109 ppm",33.5%
same,inhibition at 127 ppm,"[2]; Pseudomonas, final concentration 127 ppm",33.7%
same,inhibition at 145 ppm,"[2]; Pseudomonas, final concentration 145 ppm",37.7%
"Cc1cc(O)cc(O)c1 [Compound 2, 5-Methylresocinol]",BF inhibition (%),[1]; [4],— (No growth inhibition or no BF inhibition)
same,BF inhibition (%),[1]; [5],— (No growth inhibition or no BF inhibition)
same,BF inhibition (%),[1]; [6],— (No growth inhibition or no BF inhibition)
same,BF inhibition (%),[1]; [7],57.5%
same,BF inhibition (%),[1]; [8],57.7%
same,BF inhibition (%),[1]; [9],70.2%
same,Growth inhibition (%),[2]; [4],— (No growth inhibition or no BF inhibition)
same,Growth inhibition (%),[2]; [5],10.4%
same,Growth inhibition (%),[2]; [6],— (No growth inhibition or no BF inhibition)
same,Growth inhibition (%),[2]; [7],— (No growth inhibition or no BF inhibition)
same,Growth inhibition (%),[2]; [8],17.6%
same,Growth inhibition (%),[2]; [9],— (No growth inhibition or no BF inhibition)
"CCCCc1cc(O)ccc1O [j, 2-Butylhydroquinone]",inhibition at 22 ppm,"[1]; Pseudomonas, final concentration 22 ppm, read-out: BF inhibition (%)",16.3%
same,inhibition at 44 ppm,"[1]; Pseudomonas, final concentration 44 ppm, read-out: BF inhibition (%)",14.1%
same,inhibition at 89 ppm,"[1]; Pseudomonas, final concentration 89 ppm, read-out: BF inhibition (%)",42.1%
same,inhibition at 133 ppm,"[1]; Pseudomonas, final concentration 133 ppm, read-out: BF inhibition (%)",57.3%
same,inhibition at 155 ppm,"[1]; Pseudomonas, final concentration 155 ppm, read-out: BF inhibition (%)",63.9%
same,inhibition at 177 ppm,"[1]; Pseudomonas, final concentration 177 ppm, read-out: BF inhibition (%)",75.4%
same,inhibition at 22 ppm,"[2]; Pseudomonas, final concentration 22 ppm",8.5%
same,inhibition at 44 ppm,"[2]; Pseudomonas, final concentration 44 ppm",< 0%
same,inhibition at 89 ppm,"[2]; Pseudomonas, final concentration 89 ppm",0.8%
same,inhibition at 133 ppm,"[2]; Pseudomonas, final concentration 133 ppm",< 0%
same,inhibition at 155 ppm,"[2]; Pseudomonas, final concentration 155 ppm",< 0%
same,inhibition at 177 ppm,"[2]; Pseudomonas, final concentration 177 ppm",< 0%
"CCCCCc1cc(O)cc(O)c1 [Compound 3, 5-Pentylresorcinol]",inhibition at 120 ppm,[1]; [3],0.9%
same,inhibition at 240 ppm,[1]; [3],< 0%
same,inhibition at 480 ppm,[1]; [3],50.6%
same,inhibition at 720 ppm,[1]; [3],42.3%
same,inhibition at 840 ppm,[1]; [3],85%
same,inhibition at 960 ppm,[1]; [3],86.1%
same,inhibition at 120 ppm,[2]; [10],7.7%
same,inhibition at 240 ppm,[2]; [10],< 0%
same,inhibition at 480 ppm,[2]; [10],< 0%
same,inhibition at 720 ppm,[2]; [10],< 0%
same,inhibition at 840 ppm,[2]; [10],17%
same,inhibition at 960 ppm,[2]; [10],4.9%
